# From patent US12472160B2, “Modified-release tiopronin compositions, kits and methods for treating cystinuria and related disorders” (ALTIBIO, INC., priority 2017, dated 2025)
# Key:
# [1] = cited from earlier work
# [2] = cited from earlier work; remark: listed apart in the source
# [3] = Total and free plasma tiopronin and urinary tiopronin recovery in Beagle dogs after oral dosing by four regimens (Example 4); type: in vivo; conditions: for % of the dose (unchanged drug) found in urine / maximum plasma concentrations of free tiopronin / maximum plasma concentrations of total tiopronin: average, n=3 dogs; for free (unbound) tiopronin in plasma over time: FIG. 12
# Protocol: (§1) The objective of this study was to evaluate total and free plasma tiopronin, and total urinary tiopronin, in an animal model (male Beagle dogs) following oral administration of tiopronin, according to various dose regimens, to determine whether different regimens, simulating modified release, would improve drug pharmacokinetics. Specifically, tiopronin formulations were administered to deliver 30 mg/kg per dog via single or multiple doses divided over a 12-hour period; and blood and urine samples then collected at different times post-dose.
# Tiopronin formulations were administered to provide 30 mg/kg per dog according to four different dosage regimes (Leg 1, Leg 2, Leg 3, and Leg 4), as set forth in the table below. Leg 2, Leg 3, and Leg 4 (also referred to as Q6H, Q3H, and Q2H respectively) were designed to simulate modified-release formulations, in accordance with certain embodiments of the present invention. Following administration, blood and urine samples were collected at the time points, or over the time intervals, also as indicated below.
# Preparation of Dosing Formulations: Capsules for Legs 1-4 were prepared and filled on the day of dosing, as follows. For Legs 1 and 2, tiopronin was dry mixed with avicel and mannitol to make a 40:30:30 mixture of tiopronin to avicel to mannitol, respectively; for study Legs 3 and 4, a 20:40:40 mixture of tiopronin to avicel to mannitol, respectively, was prepared. The dry mixes were custom filled with the appropriate amount of powder to deliver the specified doses to each dog based, on their respective body weights.
# (§2) Animal Dosing and Sample Collection: This non-clinical study followed established practices and standard operating procedures of Absorption Systems and Absorption Systems Inc., as well as the study protocol. Study groups each included three dogs. The dogs were housed one per cage. The dogs were fasted for at least six hours prior to each administration of the formulation. Food was given approximately ten hours post initial dosing. Animals had free access to water throughout the study.
# Following dosing, blood and urine samples were collected according to the schedule in Table 1.
# Blood samples were collected via direct venipuncture of the jugular vein or other accessible vein of the dog, and placed in chilled polypropylene tubes containing sodium heparin as an anticoagulant. Samples were maintained chilled throughout processing. Blood samples were centrifuged at 4° C. and 3,000 rpm (revolutions per minute) for 5 minutes. The first aliquot of plasma was precipitated with methanol by combining 200 μL of plasma with 600 μL of methanol in a centrifuge tube. The samples were mixed, centrifuged at 3,000 rpm for 5 minutes. The resulting supernatant was decanted into clean, labeled polypropylene tubes. The remaining plasma volume was transferred to a chilled, labeled polypropylene tube, placed on dry ice, and stored in a freezer maintained at −60° C. to −80° C. Following taking each blood sample, 15 mL of water was given to the dog via syringe.
# For study Leg 1, pre-dose urine samples were collected via free catch approximately 2 hours pre-dose. For study Legs 2, 3 and 4, pre-dose urine samples were collected via catheter approximately 2 hours pre-dose. Other urine samples were collected via free catch in the cages during the indicated interval, collected into clean bottles, and kept on cold packs. Cold packs were replenished as needed during the day. At the end of each interval, the total volume of urine was collected and recorded. Each sample was well mixed and divided into two aliquots: an approximately 5 mL first aliquot, and a second aliquot of the remaining volume. Additionally, for Leg 4 only, each dog received a 60 mL subcutaneous injection of saline (2×30 mL injections at two different sites) approximately 30 minutes prior to dosing and, if urine was not present in the animal's cage at the end of the final collection interval, the final urine sample was collected by catheter. […]
# [4] = Total and free plasma tiopronin and urinary tiopronin recovery in Beagle dogs after intraduodenal administration (Example 5); type: in vivo
# Protocol: as §1, with “intraduodenal” for “oral”, “tiopronin,” for “tiopronin, according to various dose regimens,”, “small intestine administration,” for “different regimens, simulating modified release,”, “dose;” for “or multiple doses divided over a 12-hour period;”
# Tiopronin formulations were administered to provide 30 mg/kg per dog as one single intraduodenal dose. Following administration, blood and urine samples were collected at the time points, or over the time intervals, indicated below.
# Preparation of Dosing Formulations: Capsules were prepared and filled on the day of dosing, as follows. Tiopronin was dry mixed with avicel and mannitol to make a 40:30:30 mixture of tiopronin to avicel to mannitol, respectively. The dry mixes were custom filled with the appropriate amount of powder to deliver the specified doses to each dog based, on their respective body weights.
# as §2, with “sixteen” for “six”, “eight” for “ten”
# Intraduodenal (ID) administration: Animals were anesthetized by a slow IV infusion of Propofol (6-10 mg/kg) or with an intramuscular injection of a cocktail containing ketamine (approximately 10-20 mg/kg), diazepam (3 mg/kg), and acepromazine (0.05 mg/kg) given IM about 5-10 minutes before intubation. Once animals were confirmed adequately anesthetized they were intubated and maintained using isoflurane (approximately 1-5% in oxygen 1 to 4 L/min) as necessary until dosing is complete. Formulations were administered into the proximal duodenum via endoscopic guidance to verify the dosing site. The endoscope first was maneuvered into the pyloric sphincter with camera visualization of the proximal duodenum. Once there was confirmation that the endoscope was placed between the pylorus and proximal duodenum, the test article was delivered to the proximal duodenum followed by a 5 mL flush. Upon completion of the dosing, the animals were taken off the isoflurane and allowed to recover from anesthesia. Time points began upon completion of the entire dose procedure. Following each blood sampling time point, 15 mL of water was given to each dog via syringe. […]
# [5] = Stability of tiopronin in Beagle dog plasma; type: in vitro ADME
# Protocol: (§3) Stability Testing: Finally, short term and long term stability of tiopronin in beagle dog plasma, pre-crashed plasma (plasma supernatant), and urine were assessed using two tiopronin concentrations (50 ng/mL or 500 ng/mL) under each of the following two conditions: (1) storage on the bench top for 4 hours and (2) frozen at −80° C. for up to one month. Samples were considered stable if their concentrations were within ±20% of nominal. These samples met acceptable criteria for stability and results are presented below, in Tables 5, 6, and 7, showing the % tiopronin remaining in Beagle dog plasma (Table 5), plasma supernatant (Table 6), and urine (Table 7).
# as §3, with “12, 13,” for “5, 6,”, “14,” for “7,”, “12),” for “5),”, “13),” for “6),”, “14).” for “7).”
# [6] = Stability of tiopronin in Beagle dog plasma supernatant (pre-crashed plasma); type: in vitro ADME
# Protocol: as §3
# as §3, with “12, 13,” for “5, 6,”, “14,” for “7,”, “12),” for “5),”, “13),” for “6),”, “14).” for “7).”
# [7] = Stability of tiopronin in Beagle dog urine; type: in vitro ADME
# From the text: (§4) Samples were considered stable if their concentrations were within ±20% of nominal. These samples met acceptable criteria for stability and results are presented below, in Tables 5, 6, and 7, showing the % tiopronin remaining in Beagle dog plasma (Table 5), plasma supernatant (Table 6), and urine (Table 7).
# as §4, with “12, 13,” for “5, 6,”, “14,” for “7,”, “12),” for “5),”, “13),” for “6),”, “14).” for “7).”
# cystinuria patients = conditions: cited from earlier work
# [8] = Leg 1 (Q12H): PO single 30 mg/kg dose
# [9] = Leg 2 (Q6H): PO two 15 mg/kg doses at 0 and 6 h
# [10] = Leg 3 (Q3H): PO four 7.5 mg/kg doses at 0, 3, 6, 9 h
# [11] = Leg 4: PO six 5 mg/kg doses at 0, 2, 4, 6, 8, 10 h
# [12] = intraduodenal single 30 mg/kg dose, average, n=3 dogs
# [13] = 50 ng/mL (low), bench top (RT) for 4 hours
# [14] = 50 ng/mL (low), −80° C. freezer for 1 week
# [15] = 500 ng/mL (high), bench top (RT) for 4 hours
# [16] = 500 ng/mL (high), −80° C. freezer for 1 week
smiles,measurement,setting,value
CC(C)(S)[C@@H](N)C(=O)O [D-penicillamine],patients with severe side effects limiting use / who cannot tolerate the drug,"[1]; human, in vivo",50-70%
same,bioavailability,"[1]; patients with malabsorption states, presence of antacids, or after a large meal",dramatically decreases
same,solubility of di-sulfide complex relative to cystine,[2],50 times
"CC(S)C(=O)NCC(=O)O (stereo not drawn) [tiopronin, alpha-mercaptopropionylglycine]",% of the dose (unchanged drug) found in urine,[3]; [8],19.9±8.51%
same,maximum plasma concentrations of free tiopronin,[3]; [8],11063 ± 3598 ng/mL
same,maximum plasma concentrations of total tiopronin,[3]; [8],27900 ± 8122 ng/mL
same,maximum plasma concentrations of total tiopronin,[3]; Leg 2 (Q6H): PO 30 mg/kg as two 15 mg/kg doses at 0 and 6 h,23833 ± 5829 ng/mL
same,% of the dose (unchanged drug) found in urine,[3]; [9],37.5±14.5%
same,maximum plasma concentrations of free tiopronin,[3]; [9],8177 ± 2237 ng/mL
same,maximum plasma concentrations of total tiopronin,"[3]; Leg 3 (Q3H): PO 30 mg/kg as four 7.5 mg/kg doses at 0, 3, 6, 9 h",10437 ± 1201 ng/mL
same,% of the dose (unchanged drug) found in urine,[3]; [10],50.6±14.0%
same,maximum plasma concentrations of free tiopronin,[3]; [10],3143 ± 624 ng/mL
same,maximum plasma concentrations of total tiopronin,"[3]; Leg 4: PO 30 mg/kg as six 5 mg/kg doses at 0, 2, 4, 6, 8, 10 h",10297 ± 2199 ng/mL
same,time of maximum plasma concentrations of free tiopronin,[3]; [11],3 hours post dosing
same,% of the dose (unchanged drug) found in urine,[3]; [11],32.7±5.90%
same,maximum plasma concentrations of free tiopronin,[3]; [11],2323 ± 589 ng/mL
same,free (unbound) tiopronin in plasma over time,[3]; Legs 1 and 2 (Q12H and Q6H),disappear from the plasma after a short period of time
same,free (unbound) tiopronin in plasma over time,[3]; Legs 3 and 4 (Q3H and Q2H),maintained
same,"urinary recovery of tiopronin, comparison of four dosing schedules","[3]; Q3H vs Q12H, Q6H, Q2H, FIG. 13",best tiopronin recovery in urine
same,% of the dose (unchanged drug) found in urine,"[4]; ID single 30 mg/kg dose, average, n=3 dogs",30.5±19.9%
same,maximum plasma concentrations of free tiopronin,[4]; [12],1643 ± 105 ng/mL
same,maximum plasma concentrations of total tiopronin,[4]; [12],8640 ± 5522 ng/mL
same,"urinary recovery of tiopronin, small intestine vs oral administration","[4]; single 30 mg/kg dose, FIG. 16",better tiopronin recovery in urine
same,% Tiopronin Remaining in Beagle Dog Plasma,[5]; [13],109%
same,% Tiopronin Remaining in Beagle Dog Plasma,[5]; [14],110%
same,% Tiopronin Remaining in Beagle Dog Plasma,"[5]; 50 ng/mL (low), −80° C. freezer for 2 weeks",112%
same,% Tiopronin Remaining in Beagle Dog Plasma,"[5]; 50 ng/mL (low), −80° C. freezer for 4 weeks",95.6%
same,% Tiopronin Remaining in Beagle Dog Plasma,[5]; [15],87.0%
same,% Tiopronin Remaining in Beagle Dog Plasma,[5]; [16],95.4%
same,% Tiopronin Remaining in Beagle Dog Plasma,"[5]; 500 ng/mL (high), −80° C. freezer for 2 weeks",92.8%
same,% Tiopronin Remaining in Beagle Dog Plasma,"[5]; 500 ng/mL (high), −80° C. freezer for 4 weeks",90.4%
same,% Tiopronin Remaining in Beagle Dog Plasma Supernatant,[6]; [13],113%
same,% Tiopronin Remaining in Beagle Dog Plasma Supernatant,[6]; [14],118%
same,% Tiopronin Remaining in Beagle Dog Plasma Supernatant,"[6]; 50 ng/mL (low), −80° C. freezer for 2 week",105%
same,% Tiopronin Remaining in Beagle Dog Plasma Supernatant,"[6]; 50 ng/mL (low), −80° C. freezer for 4 week",113%
same,% Tiopronin Remaining in Beagle Dog Plasma Supernatant,[6]; [15],105%
same,% Tiopronin Remaining in Beagle Dog Plasma Supernatant,[6]; [16],112%
same,% Tiopronin Remaining in Beagle Dog Plasma Supernatant,"[6]; 500 ng/mL (high), −80° C. freezer for 2 week",105%
same,% Tiopronin Remaining in Beagle Dog Plasma Supernatant,"[6]; 500 ng/mL (high), −80° C. freezer for 4 week",116%
same,% Tiopronin Remaining in Beagle Dog Urine,"[7]; High (2500 ng/mL), bench top (RT) for 4 hours",84.9%
same,% Tiopronin Remaining in Beagle Dog Urine,"[7]; High (2500 ng/mL), −80° C. freezer for 1 week",107%
same,% Tiopronin Remaining in Beagle Dog Urine,"[7]; High (2500 ng/mL), −80° C. freezer for 2 week",90.9%
same,% Tiopronin Remaining in Beagle Dog Urine,"[7]; High (2500 ng/mL), −80° C. freezer for 4 week",96.6%
same,% Tiopronin Remaining in Beagle Dog Urine,"[7]; Low (250 ng/mL), bench top (RT) for 4 hours",113%
same,% Tiopronin Remaining in Beagle Dog Urine,"[7]; Low (250 ng/mL), −80° C. freezer for 1 week",106%
same,% Tiopronin Remaining in Beagle Dog Urine,"[7]; Low (250 ng/mL), −80° C. freezer for 2 week",119%
same,% Tiopronin Remaining in Beagle Dog Urine,"[7]; Low (250 ng/mL), −80° C. freezer for 4 week",112%
same,cases/patients in which the drug is discontinued,"cystinuria patients; due to adverse reactions, need for frequent dosing, poor efficacy (Pak et al., 1986)",about 30%
same,cystinuria patients in whom medication fails (continue forming stones),"cystinuria patients; human, in vivo",85%
